Reference: patent US20150011751A1, “NOVEL TRIAZINE DERIVATIVE” (CARNA BIOSCIENCES, INC., priority 2012, published 2015)

Molecular target: Dephosphorylated BTK (Homo sapiens, UniProt Q06187)
Experiment: Test of activity inhibition against dephosphorylated BTK (mobility shift assay)

Chain of Dephosphorylated BTK (Q06187 whole entry): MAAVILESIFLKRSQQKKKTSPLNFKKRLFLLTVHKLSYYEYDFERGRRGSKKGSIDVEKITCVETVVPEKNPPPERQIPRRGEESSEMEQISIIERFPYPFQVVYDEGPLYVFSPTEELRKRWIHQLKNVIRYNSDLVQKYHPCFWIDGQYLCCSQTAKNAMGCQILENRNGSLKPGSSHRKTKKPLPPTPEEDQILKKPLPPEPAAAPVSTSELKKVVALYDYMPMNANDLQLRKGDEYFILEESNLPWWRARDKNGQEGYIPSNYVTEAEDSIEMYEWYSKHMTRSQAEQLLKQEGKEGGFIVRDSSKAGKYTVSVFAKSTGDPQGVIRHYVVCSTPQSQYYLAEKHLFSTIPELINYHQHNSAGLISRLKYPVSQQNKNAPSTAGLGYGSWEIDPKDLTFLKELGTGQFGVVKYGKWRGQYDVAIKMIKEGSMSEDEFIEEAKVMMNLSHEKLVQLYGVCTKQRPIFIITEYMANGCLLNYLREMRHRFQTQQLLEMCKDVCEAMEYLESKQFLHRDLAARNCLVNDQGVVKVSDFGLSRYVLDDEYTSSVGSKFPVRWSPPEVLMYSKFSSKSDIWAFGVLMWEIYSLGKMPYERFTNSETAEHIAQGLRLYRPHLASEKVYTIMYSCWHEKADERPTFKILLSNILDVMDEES

Row | SMILES | IC50
1 | CCn1ccc(Nc2nc(N)nc(-c3cccc(N4CCc5cc(C6CC6)cc(F)c5C4=O)c3CO)n2)c1 [Example 231, 2-(3-{4-Amino-6-[(1-eth-yl-1H-pyrrol-3-yl)ami-no]-1,3,5-triazin-2-yl}-2-(hydroxymethyl)phenyl)-6-cyclopropyl-8-fluoro-3,4-dihydro-isoquinolin-1(2H)-one] | 1.7 nM
2 | CS(=O)(=O)n1cc(Nc2nc(N)nc(-c3cccc(N4CCc5cc(C6CC6)cc(F)c5C4=O)c3CO)n2)cn1 [Example 233, 2-[3-(4-Amino-6-{[1-(meth-ylsulfonyl)-1H-py-razol-4-yl]amino}-1,3,- 5-triazin-2-yl)-2-(hy-droxymethyl)phenyl]-6-cyclopropyl-8-fluoro-3,4-dihydroisoquino-lin-1(2H)-one] | 4.2 nM
3 | Nc1nc(Nc2ccn(CCO)c2)nc(-c2cccc(N3CCc4cc(C5CC5)cc(F)c4C3=O)c2CO)n1 [Example 234, 2-[3-(4-Amino-6-{[1-(2-hydroxyethyl)-1H-pyrrol-3-yl]amino}-1,3,5-triazin-2-yl)-2-(hy-droxymethyl)phenyl]-6-cyclopropyl-8-fluoro-3,4-dihydroisoquinolin-1(2H)-one] | 2.7 nM
4 | Nc1nc(Nc2cnn(C3CC3)c2)nc(-c2cccc(N3CCc4cc(C5CC5)cc(F)c4C3=O)c2CO)n1 [Example 238, 2-(3-{4-Amino-6-[(1-cyclo-propyl-1H-pyrazol-4-yl)amino]-1,3,5-tri-azin-2-yl}-2-(hydroxy-methyl)phenyl)-6-cyclo-propyl-8-fluoro-3,4-dihydroisoquinolin-1 (2H)-one] | 0.9 nM
5 | Nc1nc(Nc2cnn(CC(F)(F)F)c2)nc(-c2cccc(N3CCc4cc(C5CC5)cc(F)c4C3=O)c2CO)n1 [Example 240, 2-[3-(4-Amino-6-{[1-(2,2,2-trifluoroethyl)-1H-pyrazol-4-yl]amino}-1,3,5-triazin-2-yl)-2-(hydroxymethyl)phe-nyl]-6-cyclopropyl-8-fluoro-3,4-dihydroiso-quinolin-1(2H)-one] | 1.1 nM
6 | Nc1nc(Nc2ccc(N3CCOCC3)c(F)c2)nc(-c2cccc(N3CCc4cc(C5CC5)cc(F)c4C3=O)c2CO)n1 [Example 242, 2-(3-{4-Amino-6-[(3-fluoro-4-morpholinophe-nyl)amino]-1,3,5-tri-azin-2-yl}-2-(hydroxymeth-yl)phenyl)-6-cyclo-propyl-8-fluoro-3,4-di-hydroisoquinolin-1(2H)-one] | 1.5 nM
7 | Nc1nc(Nc2cccc(N3CCOCC3)c2)nc(-c2cccc(N3CCc4cc(C5CC5)cc(F)c4C3=O)c2CO)n1 [Example 243, 2-(3-{4-Amino-6-[(3-morpho-linophenyl)amino]-1,3,5-triazin-2-yl}-2-(hydroxymethyl)phe-nyl)-6-cyclopropyl-8-fluoro-3,4-dihydroiso-quinolin-1(2H)-one] | 2.3 nM
8 | Nc1nc(Nc2ccc(N3CCCC3)cc2)nc(-c2cccc(N3CCc4cc(C5CC5)cc(F)c4C3=O)c2CO)n1 [Example 244, 2-[3-(4-Amino-6-{[4-(pyr-rolidin-1-yl)phenyl]amino}-1,3,5-triazin-2-yl)-2-(hydroxymeth-yl)phenyl]-6-cyclopro-pyl-8-fluoro-3,4-dihy-droisoquinolin-1(2H)-one] | 4.6 nM
9 | CCN(CC)c1ccc(Nc2nc(N)nc(-c3cccc(N4CCc5cc(C6CC6)cc(F)c5C4=O)c3CO)n2)cc1 [Example 245, 2-[3-(4-Amino-6-{[4-(di-ethylamino)phenyl]a-mino}-1,3,5-triazin-2-yl)-2-(hydroxymethyl)phenyl]-6-cyclopropyl-8-fluoro-3,4-dihydro-isoquinolin-1(2H)-one] | 5.6 nM
10 | CN(CCO)c1ccc(Nc2nc(N)nc(-c3cccc(N4CCc5cc(C6CC6)cc(F)c5C4=O)c3CO)n2)cc1 [Example 246, 2-{3-[4-Amino-6-({4-[(2-hydroxyethyl)(meth-yl)amino]phenyl}amino)-1,3,5-triazin-2-yl]-2-(hydroxymethyl)phe-nyl}-6-cyclopropyl-8-fluoro-3,4-dihydroiso-quinolin-1(2H)-one] | 2.7 nM
11 | Nc1nc(Nc2ccn(CC3CC3)c2)nc(-c2cccc(N3CCc4cc(C5CC5)cc(F)c4C3=O)c2CO)n1 [Example 248, 2-[3-(4-Amino-6-{[1-(cyclo-propylmethyl)-1H-pyrrol-3-yl]amino}-1,3,5-triazin-2-yl)-2-(hydroxymethyl)phenyl]-6-cyclopropyl-8-fluoro-3,4-dihydroisoquinolin-1(2H)-one] | 3.2 nM
12 | Nc1nc(Nc2ccn([C@H]3CCOC3)c2)nc(-c2cccc(N3CCc4cc(C5CC5)cc(F)c4C3=O)c2CO)n1 [Example 249, (S)-2-[3-(4-Amino-6-{[1-(tetrahydrofuran-3-yl)-1H-pyrrol-3-yl]ami-no}-1,3,5-triazin-2-yl)-2-(hydroyxmethyl)phenyl]-6-cyclopropyl-8-fluoro-3,4-dihydro-isoquinolin-1(2H)-one] | 1 nM

Compounds with a lower IC50, results first:

Row | IC50 | SMILES
13 | 0.8 nM | Nc1nc(Nc2cnn([C@H]3CCOC3)c2)nc(-c2cccc(N3CCc4cc(C5CC5)cc(F)c4C3=O)c2CO)n1 [Example 235, (S)-2-[3-(4-Amino-6-{[1-(tetrahydrofuran-3-yl)-1H-pyrazol-4-yl]amino}-1,3,5-triazin-2-yl)-2-(hydroxymeth-yl)phenyl]-6-cyclopropyl-8-fluoro-3,4-dihydro-isoquinolin-1(2H)-one]
14 | 0.8 nM | Nc1nc(Nc2cnn([C@@H]3CCOC3)c2)nc(-c2cccc(N3CCc4cc(C5CC5)cc(F)c4C3=O)c2CO)n1 [Example 236, (R)-2-[3-(4-Amino-6-{[1-(tetrahydrofuran-3-yl)-1H-pyrazol-4-yl]amino}-1,3,5-triazin-2-yl)-2-(hydroxymeth-yl)phenyl]-6-cyclopropyl-8-fluoro-3,4-dihydro-isoquinolin-1(2H)-one]
15 | 0.8 nM | Nc1nc(Nc2cnn(CCN3CCOCC3)c2)nc(-c2cccc(N3CCc4cc(C5CC5)cc(F)c4C3=O)c2CO)n1 [Example 237, 2-[3-(4-Amino-6-{[1-(2-morpholinoethyl)-1H-pyrazol-4-yl]amino}-1,3,5-triazin-2-yl)-2-(hydroxymethyl)phenyl]-6-cyclopropyl-8-fluoro-3,4-dihydro-isoquinolin-1(2H)-one]
16 | 0.7 nM | CNC(=O)c1cc(Nc2nc(N)nc(-c3cccc(N4CCc5cc(C6CC6)cc(F)c5C4=O)c3CO)n2)cn1C [Example 232, 4-({4-Amino-6-[3-(6-cyclo-propyl-8-fluoro-1-oxo-3,4-dihydroisoquinolin-2(1H)-yl)-2-(hy-droxymethyl)phenyl]-1,3,5-triazin-2-yl}ami-no)-N,1-dimethyl-1H-pyrrole-2-carboxamide]
17 | 0.6 nM | CC(C)(C)n1cc(Nc2nc(N)nc(-c3cccc(N4CCc5cc(C6CC6)cc(F)c5C4=O)c3CO)n2)cn1 [Example 241, 2-[3-(4-Amino-6-{[1-(tert-butyl)-1H-pyrazol-4-yl]amino}-1,3,5-tri-azin-2-yl)-2-(hydroxy-methyl)phenyl]-6-cyclo-propyl-8-fluoro-3,4-dihydroisoquinolin-1(2H)-one]
18 | 0.5 nM | Nc1nc(Nc2cnn(C3CCCC3)c2)nc(-c2cccc(N3CCc4cc(C5CC5)cc(F)c4C3=O)c2CO)n1 [Example 239, 2-(3-{4-Amino-6-[(1-cyclo-pentyl-1H-pyrazol-4-yl)amino]-1,3,5-tri-azin-2-yl}-2-(hydroxy-methyl)phenyl)-6-cyclo-propyl-8-fluoro-3,4-dihydroisoquinolin-1 (2H)-one]
